In patent US20240216549A1, “ENHANCEMENT OF TREATMENT WITH IMMUNOTHERAPEUTIC AGENTS” (ACT THERAPEUTICS LTD, priority 2021, published 2024):

Tested on: subcutaneous prostate cancer model (PC3)
Test: Tumour specific uptake of Evans Blue vs. Enhancement MI
Type: in vivo, mice
Settings: ACT, Enhancement 0.5 MHz MI 0.2, compared to MI=0 (no ultrasound); 30 min after treatment
Experimental: To investigate the effect of MI variance of the US Enhancement field, tumour specific uptake of Evans Blue (EB, fluorescent dye) has been investigated in a subcutaneous prostate cancer model (PC3) in mice. Five groups with Enhancement insonation MIs of 0, 0.1, 0.2, 0.3 and 0.4 were investigated (N=3 animals per group). […] 30 min after treatment, the tumours were excised and the amount of EB was measured by spectrophotometry at 620 nm.

increase in tumour specific uptake: ~60%
Structure (SMILES): Cc1cc(-c2ccc(/N=N/c3ccc4c(S(=O)(=O)O)cc(S(=O)(=O)O)c(N)c4c3O)c(C)c2)ccc1/N=N/c1ccc2c(S(=O)(=O)O)cc(S(=O)(=O)O)c(N)c2c1O [Evans Blue]
